Measurements: US20130287854A1, “COMPOSITIONS AND USES” (VECTURA LIMITED, priority 2010, published 2013)

Legend:
[1] = cited from earlier work
[2] = tested on: Parkinson's disease patients; conditions: subcutaneous injection, marketing literature; cited from earlier work
[3] = human, in vivo
[4] = tested on: patients with PD; conditions: subcutaneous, 11/16 patients; cited from earlier work
[5] = tested on: Parkinson's disease patients; experiment: Therapeutic effect of apomorphine by pulmonary inhalation in a clinical trial; type: in vivo, human
[6] = tested on: male erectile dysfunction patients; experiment: VR004/008 Phase IIb study, male erectile dysfunction; type: in vivo, human; conditions: a couple of patients receiving 310 μg and 430 μg doses
Protocol: In contrast, in a recent clinical study relating to male erectile dysfunction (VR004/008 Phase IIb study), the majority of patients reported that the duration of action lasted between 2 to 10 minutes, although a couple of patients receiving 310 μg and 430 μg doses did report that the duration of action lasted over 30 minutes.=

[7] = tested on: patients with PD; conditions: subcutaneous, cited from earlier work

CN1CCc2cccc3c2[C@H]1Cc1ccc(O)c(O)c1-3 [apomorphine]
dose linearity of pharmacokinetics ([1]; dose range of 2 to 8 mg, single subcutaneous injection into the abdominal wall, idiopathic Parkinson's disease): linear pharmacokinetics
Tmax ([1]; nasal administration): approximately 15 minutes
patients with improved movement within 20 minutes post dose [2]: 90%
Tmax, fastest observed [3]: 1 min
patients reporting incidences of dyskinesia [4]: 69%
onset of the therapeutic effect (conversion) ([5]; majority of patients, after inhaling): ≤ 10 min
mean duration of the therapeutic effect ([5]; pulmonary inhalation, in a clinical trial): 75 min
conversion from the off to the on state, quickest reported ([5]; some patients, pulmonary inhalation): 2 min
duration of action [6]: over 30 minutes
patients reporting an increased dyskinesia severity compared to baseline ([7]; 15 of 20 patients): 75%
patients reporting signs of dyskinesia ([7]; active group, FIG. 14): 35%
mean daily duration of on state with non-troublesome dyskinesia and troublesome dyskinesias ([7]; active group): 0.24 h
change in the mean daily period asleep from the baseline ([7]; active treatment group): 0.10 h
mean time to reach therapeutic effect ([7]; active treatment group): 22.2 min
